Reference: patent publication US20050176826A1, “Use of asc-1 inhibitors to treat neurological and psychiatric disorders” (H. Lundbeck A/S, priority 2002, published 2005)

Test system: rat brain (ventral hippocampus) extracellular amino acids
Assay: Microdialysis in rat ventral hippocampus, amino acid levels in dialysate
Assay type: in vivo
Conditions: 1 mM infused via microdialysis probe into ventral hippocampus, 140 min (FIG. 1)
Source text: Rats (male wistar) were anaesthetized and intracerebral guide cannulas (CMA/12) were stereotaxically implanted into the brain positioning the dialysis probe tip in the ventral hippocampus (co-ordinates 5.6 mm […] to bregma, lateral −5.0 mm, 7.0 mm ventral to dura). The rats were allowed to recover from surgery for at least 2 days. On the day of the experiment, a microdialysis probe (CMA/12, 0.5 mm diameter, 3 mm length) was inserted through the guide cannula. The probes were connected via a dual channel swivel to a microinjection pump. Perfusion of the microdialysis probe with filtered Ringer solution (145 mM NaCl, 3 mM KCl, 1 mM MgCl2, 1.2 mM CaCl2) was begun shortly before insertion of the probe into the brain and continued for the duration of the experiment at a constant flow of 1 μl/min. After 165 min of stabilization, the experiments were initiated. A 20 min sampling regime was used throughout the experimental period. Time points were corrected for lag time of the perfusate from the microdialysis site to the probe outlet. The compound, S-methyl-L-cysteine (Sigma-Aldrich, St. Louis, USA) was dissolved in filtered Ringer solution (in 1 mM concentration) and was locally infused into the ventral hippocampus by reverse dialysis for 140 min (FIG. 1). After the experiments, the rats were sacrificed by decapitation. The brains were removed, frozen and sectioned (20 μm), and the position of the probes was verified. The concentrations of amino acids in the dialysates were analyzed by means of HPLC with fluorescence detection after precolumn online derivatisation with o-phatalaldehyde. The system consisted of a Hypersil AA-ODS column (5 μm, 2.1×200 mm, Agilent) with a Agilent 1100 fluoresence detector (excitation, 266-340 nm; emission, 305-340 nm). Mobile phases consisted of A: 20 mM sodium acetate, 0.018% triethylamine, 0.3% tetrahydrofuran, pH 7.2. B: 20 mM sodium acetate, 40% acetonitrile and 40% methanol, pH 7.2. The oven temperature was set at 40° C. and flow rate was 0.45 ml/min. Data were collected and analysed using ChemStation software (Agilent) after calibration with a range of standard amino acid solutions (0.1-10 μM). The mean value of 3 consecutive samples immediately preceding compound administration served as the basal level for each experiment and data were converted to percentage of basal (mean basal pre-injection values normalized to 100%).

CSCC(N)C(=O)O (stereo in doubt) [(S)-methyl-L-cysteine]
marked increase: level of alanine in rat brain dialysate | level of glycine in rat brain dialysate | level of serine in rat brain dialysate | level of threonine in rat brain dialysate
not affected: level of aspartate in rat brain dialysate | level of glutamate in rat brain dialysate
